# According to PubChem BioAssay AID493144 (Sanford-Burnham Center for Chemical Genomics, 2011):
# Active and inactive are the calls of the source. The rule behind the calls is not given here.
# Target: Intestinal-type alkaline phosphatase (Homo sapiens) (UniProt P09923)
# Test: human IAP inhibitors, SAR follow-up, mouse IAP inhibitor project, biochemical, human enzyme for mouse series (AID 493144)
# Conditions: purified human intestinal alkaline phosphatase, enzymatic activity
# Chain of Intestinal-type alkaline phosphatase (Homo sapiens) (P09923 whole entry, looked up): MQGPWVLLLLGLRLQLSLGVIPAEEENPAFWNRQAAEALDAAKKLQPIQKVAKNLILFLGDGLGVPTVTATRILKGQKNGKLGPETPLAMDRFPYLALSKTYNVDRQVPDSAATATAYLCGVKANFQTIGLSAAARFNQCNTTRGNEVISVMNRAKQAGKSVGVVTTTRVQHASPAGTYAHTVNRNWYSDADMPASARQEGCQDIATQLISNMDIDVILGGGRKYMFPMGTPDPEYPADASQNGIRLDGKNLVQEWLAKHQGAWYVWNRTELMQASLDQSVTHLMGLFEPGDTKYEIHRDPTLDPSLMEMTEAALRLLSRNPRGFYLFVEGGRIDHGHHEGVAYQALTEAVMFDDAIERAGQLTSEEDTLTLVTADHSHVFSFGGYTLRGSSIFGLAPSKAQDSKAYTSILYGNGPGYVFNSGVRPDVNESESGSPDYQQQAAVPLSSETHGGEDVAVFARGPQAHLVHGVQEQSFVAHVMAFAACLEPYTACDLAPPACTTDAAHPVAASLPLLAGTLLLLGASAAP
row,SMILES,IC50
1,CCn1cc(CN2CCC(C(=O)Nc3cccc(-c4cccc(F)c4)c3)CC2)cn1,> 100 µM (inactive)
2,Cc1ccc(C)c(NC(=S)NCCC(c2ccccc2)c2ccccc2)c1,> 100 µM (inactive)
3,Oc1ccc(-c2csc(Nc3cccc4ccccc34)n2)cc1O,44.1 µM
4,Cc1ccc(NC(=O)CCNS(=O)(=O)c2ccc3[nH]c(=O)oc3c2)cc1C,> 100 µM (inactive)
5,C=CCn1cc(CN2CCC(C(=O)Nc3cccc(-c4cccc(F)c4)c3)CC2)c(C)n1,> 100 µM (inactive)
6,O=C(CN1C(=O)/C(=C\c2ccco2)SC1=S)Nc1ccccc1C(=O)O,> 100 µM (inactive)
7,CCOC(=O)c1ccc(NC(=S)NCCC(c2ccccc2)c2ccccc2)cc1,> 100 µM (inactive)
8,COc1cccc(-c2cccc(NC(=O)C3CCN(Cc4ccc(CO)o4)CC3)c2)c1,> 100 µM (inactive)
9,O=[N+]([O-])c1ccc(NC(=S)NCCC(c2ccccc2)c2ccccc2)cc1,> 100 µM (inactive)
10,Cc1ccc(NC(=S)NCCC(c2ccccc2)c2ccccc2)cc1C,> 100 µM (inactive)
11,NS(=O)(=O)c1ccc(NC(=S)NCCC(c2ccccc2)c2ccccc2)cc1,> 100 µM (inactive)
12,Cc1cc(C)cc(NC(=S)NCCC(c2ccccc2)c2ccccc2)c1,> 100 µM (inactive)
13,O=C(CN1C(=O)/C(=C/c2ccco2)SC1=S)Nc1cccc(C(=O)O)c1,> 100 µM (inactive)
14,Cc1c(Cl)cccc1Nc1nc(-c2ccc(O)c(O)c2)cs1,> 100 µM (inactive)
15,COc1ccc(Cl)cc1Nc1nc(-c2ccc(O)c(O)c2)cs1,> 100 µM (inactive)
16,COC(=O)c1cc(NC(=S)NCCC(c2ccccc2)c2ccccc2)cc(C(=O)OC)c1,> 100 µM (inactive)
17,S=C(NCCC(c1ccccc1)c1ccccc1)Nc1ccc(Cl)cc1,> 100 µM (inactive)
18,CC1(c2ccccc2)CC(C)(C)N(C(=S)Nc2ccccc2)c2ccccc21 (stereo not drawn),> 100 µM (inactive)
19,Cc1c(CN2CCC(C(=O)Nc3cccc(-c4cccc(Cl)c4)c3)CC2)cnn1C,> 100 µM (inactive)
20,CCn1cc(CN2CCC(C(=O)Nc3cccc(-c4cccc(Cl)c4)c3)CC2)cn1,> 100 µM (inactive)
21,CCn1cc(CN2CCC(C(=O)Nc3cccc(-c4cccc(OC)c4)c3)CC2)cn1,> 100 µM (inactive)
22,CC(C)n1cc(CN2CCC(C(=O)Nc3cccc(-c4cccc(F)c4)c3)CC2)cn1,> 100 µM (inactive)
23,CCn1nc(C)c(CN2CCC(C(=O)Nc3cccc(-c4cccc(Cl)c4)c3)CC2)c1C,> 100 µM (inactive)

row,SMILES,IC50
1,S=C(NCCC(c1ccccc1)c1ccccc1)Nc1ccccc1,> 100 µM (inactive)
2,COc1cccc(NC(=S)NCCC(c2ccccc2)c2ccccc2)c1,> 100 µM (inactive)
3,CN1CCC(=NNC(=O)c2cc(O)c(O)c(O)c2)CC1,> 100 µM (inactive)
4,Fc1ccc(NC(=S)NCCC(c2ccccc2)c2ccccc2)cc1Cl,> 100 µM (inactive)
5,CC(C)n1cc(CN2CCC(C(=O)Nc3cccc(-c4cccc(Cl)c4)c3)CC2)cn1,> 100 µM (inactive)
6,C=CCn1cc(CN2CCC(C(=O)Nc3cccc(-c4cccc(Cl)c4)c3)CC2)c(C)n1,> 100 µM (inactive)
7,Cn1cc(CN2CCC(C(=O)Nc3cccc(-c4cccc(F)c4)c3)CC2)cn1,> 100 µM (inactive)
8,O=C(Nc1cccc(-c2cccc(Cl)c2)c1)C1CCN(Cc2ccc(CO)o2)CC1,> 100 µM (inactive)
9,O=S(=O)(Nc1ncccn1)c1ccc(NC(=S)NCCC(c2ccccc2)c2ccccc2)cc1,> 100 µM (inactive)
10,S=C(NCCC(c1ccccc1)c1ccccc1)Nc1ccc(Cl)c(Cl)c1,> 100 µM (inactive)
11,S=C(NCCC(c1ccccc1)c1ccccc1)Nc1ccc(Nc2ccccc2)cc1,> 100 µM (inactive)
12,FC(F)(F)c1cccc(NC(=S)NCCC(c2ccccc2)c2ccccc2)c1,> 100 µM (inactive)
13,CCn1nc(C)c(CN2CCC(C(=O)Nc3cccc(-c4cccc(F)c4)c3)CC2)c1C,> 100 µM (inactive)
14,CCN1CCN(S(=O)(=O)c2ccc3[nH]c(=O)oc3c2)CC1,> 100 µM (inactive)
15,COc1ccc(Cl)cc1NC(=S)NCCC(c1ccccc1)c1ccccc1,> 100 µM (inactive)
16,CCn1c(SCC(=O)c2ccc(O)c(O)c2)nnc1-c1ccccc1OC,14 µM
17,Cc1ccc(CN2CCC(C(=O)Nc3cccc(-c4cccc(F)c4)c3)CC2)o1,> 100 µM (inactive)
18,CC(C)c1ccccc1NC(=S)NCCC(c1ccccc1)c1ccccc1,> 100 µM (inactive)
19,COc1cc([N+](=O)[O-])ccc1NC(=S)NCCC(c1ccccc1)c1ccccc1,> 100 µM (inactive)
20,COc1cc(NC(=S)NCCC(c2ccccc2)c2ccccc2)cc(OC)c1,> 100 µM (inactive)
21,CC(C)N1CCC(=NNC(=O)c2cc(O)c(O)c(O)c2)CC1,> 100 µM (inactive)
22,COc1ccc(C(=O)CSc2n[nH]c(-c3ccccc3)n2)cc1OC,> 100 µM (inactive)
23,CCn1cc(CN2CCC(C(=O)Nc3cccc(-c4cccc(OC)c4)c3)CC2)c(C)n1,> 100 µM (inactive)

row,SMILES,IC50
1,Cc1c(Cl)cccc1NC(=S)NCCC(c1ccccc1)c1ccccc1,> 100 µM (inactive)
2,S=C(NCCC(c1ccccc1)c1ccccc1)Nc1cccc(Cl)c1,> 100 µM (inactive)
3,Cc1cccc(NC(=S)NCCC(c2ccccc2)c2ccccc2)c1C,> 100 µM (inactive)
4,Cn1cc(CN2CCC(C(=O)Nc3cccc(-c4cccc(Cl)c4)c3)CC2)cn1,> 100 µM (inactive)
5,Fc1ccccc1NC(=S)NCCC(c1ccccc1)c1ccccc1,> 100 µM (inactive)
6,O=C(Nc1cccc(-c2cccc(F)c2)c1)C1CCN(Cc2ccc(CO)o2)CC1,> 100 µM (inactive)
7,Cc1cc(NC(=O)CCNS(=O)(=O)c2ccc3[nH]c(=O)oc3c2)ccc1Br,> 100 µM (inactive)
8,COc1cccc(-c2cccc(NC(=O)C3CCN(Cc4ccc(C)o4)CC3)c2)c1,> 100 µM (inactive)
9,Cc1cc(=O)oc2cc(NC(=S)NCCC(c3ccccc3)c3ccccc3)ccc12,> 100 µM (inactive)
10,CCn1ncc(CN2CCC(C(=O)Nc3cccc(-c4cccc(F)c4)c3)CC2)c1C,> 100 µM (inactive)
11,COCc1ccc(CN2CCC(C(=O)Nc3cccc(-c4cccc(Cl)c4)c3)CC2)o1,> 100 µM (inactive)
12,CCc1ccccc1Nc1nc(-c2ccc(O)c(O)c2)cs1,21.4 µM
13,Cc1cc(Cl)ccc1NC(=S)NCCC(c1ccccc1)c1ccccc1,> 100 µM (inactive)
14,CCCn1ncc(CN2CCC(C(=O)Nc3cccc(-c4cccc(F)c4)c3)CC2)c1C,> 100 µM (inactive)
15,COc1ccc(NC(=S)NCCC(c2ccccc2)c2ccccc2)cc1,> 100 µM (inactive)
16,O=C(CN1C(=O)/C(=C/c2ccco2)SC1=S)Nc1ccc(C(=O)O)cc1,> 100 µM (inactive)
17,Cc1ccc(NC(=S)NCCC(c2ccccc2)c2ccccc2)cc1,> 100 µM (inactive)
18,Cc1nn(C)c(Cl)c1CN1CCC(C(=O)Nc2cccc(-c3cccc(F)c3)c2)CC1,> 100 µM (inactive)
19,CN(C)S(=O)(=O)c1cccc(NC(=S)NCCC(c2ccccc2)c2ccccc2)c1,> 100 µM (inactive)
20,Cc1nn(C(C)C)c(C)c1CN1CCC(C(=O)Nc2cccc(-c3cccc(F)c3)c2)CC1,> 100 µM (inactive)
21,S=C(NCCC(c1ccccc1)c1ccccc1)Nc1ccc(Cl)cc1Cl,> 100 µM (inactive)
22,O=C(Nc1cccc(-c2cccc(Cl)c2)c1)C1CCN(C2CCC2)CC1,> 100 µM (inactive)
